# Data from patent publication US20250339409A1, “USES OF PAN BET INHIBITORS” (VYNE THERAPEUTICS INC., priority 2021, published 2025).
# Where “and” joins values, the source holds several entries; their conditions need not be identical. Identical values can stand only once. Marks after values point to notes of the source that are not given here.
# Test system: anti collagen antibodies induced arthritis (ACAIA)
# Assay: Anti collagen antibodies induced arthritis (ACAIA) in mice, intra-articular treatment: paw thickness, arthritis clinical score, body weight;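 further: mouse arthritis induced by IV anti-collagen mAb on day 0 plus IP LPS on day 4, with body weight, caliper paw thickness and 0-4 paw score tracked against a day 0 baseline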
compound,measurement,setting,value
Cn1cc(-c2cccc(O)c2Oc2ccccc2)c2cc[nH]c2c1=O [BETi1],Paw thickness of treated leg (Avg.),"0.1 mg/kg IA (Group 4), Day 7",2.82 mm
same,Paw thickness of untreated leg (Avg.),"0.1 mg/kg IA (Group 4), Day 7",2.87 mm
same,Percent change of weight per day (Av),"0.1 mg/kg IA (Group 4), Day 7",88.48%
same,"Δ clinical score untreated -treated, Avg. Delta","0.1 mg/kg IA (Group 4), Day 7",0.00 points
same,Clinical score of treated leg (Avg.),"0.1 mg/kg IA (Group 4), Day 8",2.29 points
same,Paw thickness Avg. Delta untreated -treated,"0.1 mg/kg IA (Group 4), Day 8",−0.05 mm
same,Paw thickness of treated leg (Avg.),"0.1 mg/kg IA (Group 4), Day 8",2.86 mm
same,Paw thickness of untreated leg (Avg.),"0.1 mg/kg IA (Group 4), Day 8",2.81 mm
same,Percent change of weight per day (Av),"0.1 mg/kg IA (Group 4), Day 8",87.72%
same,"Δ clinical score untreated -treated, Avg. Delta","0.1 mg/kg IA (Group 4), Day 8",0.00 points
same,Clinical score of treated leg (Avg.),"0.1 mg/kg IA (Group 4), Day 10",2.43 points
same,Paw thickness Avg. Delta untreated -treated,"0.1 mg/kg IA (Group 4), Day 10",0.05 mm
same,Paw thickness of treated leg (Avg.),"0.1 mg/kg IA (Group 4), Day 10",2.94 mm
same,Paw thickness of untreated leg (Avg.),"0.1 mg/kg IA (Group 4), Day 10",2.99 mm
same,Percent change of weight per day (Av),"0.1 mg/kg IA (Group 4), Day 10",88.75%
same,"Δ clinical score untreated -treated, Avg. Delta","0.1 mg/kg IA (Group 4), Day 10",0.14 points
same,Clinical score of treated leg (Avg.),"0.1 mg/kg IA (Group 4), Day 12",2.57 points
same,Paw thickness Avg. Delta untreated -treated,"0.1 mg/kg IA (Group 4), Day 12",−0.05 mm
same,Paw thickness of treated leg (Avg.),"0.1 mg/kg IA (Group 4), Day 12",3.10 mm
same,Paw thickness of untreated leg (Avg.),"0.1 mg/kg IA (Group 4), Day 12",3.05 mm
same,Percent change of weight per day (Av),"0.1 mg/kg IA (Group 4), Day 12",93.51%
same,"Δ clinical score untreated -treated, Avg. Delta","0.1 mg/kg IA (Group 4), Day 12",0.43 points
same,Clinical score of treated leg (Avg.),"1 mg/kg IA (Group 3), Baseline",0.00 points
same,Paw thickness Avg. Delta untreated -treated,"1 mg/kg IA (Group 3), Baseline",0.04 mm
same,Paw thickness of treated leg (Avg.),"1 mg/kg IA (Group 3), Baseline",2.05 mm
same,Paw thickness of untreated leg (Avg.),"1 mg/kg IA (Group 3), Baseline",2.09 mm
same,Percent change of weight per day (Av),"1 mg/kg IA (Group 3), Baseline",100.00%
same,Percent change of weight per day (individual animal),"1 mg/kg IA (Group 3), Baseline",100%
same,"Δ clinical score untreated -treated, Avg. Delta","1 mg/kg IA (Group 3), Baseline",0.00 points
same,Clinical score of treated leg (Avg.),"1 mg/kg IA (Group 3), Day 3",0.00 points
same,Paw thickness Avg. Delta untreated -treated,"1 mg/kg IA (Group 3), Day 3",0.02 mm
same,Paw thickness of treated leg (Avg.),"1 mg/kg IA (Group 3), Day 3",2.11 mm
same,Paw thickness of untreated leg (Avg.),"1 mg/kg IA (Group 3), Day 3",2.13 mm
same,Percent change of weight per day (Av),"1 mg/kg IA (Group 3), Day 3",99.97%
same,Percent change of weight per day (individual animal),"1 mg/kg IA (Group 3), Day 3",100.9804% and 98.22% and 102.4631% and 98.49% and 97.67%
same,"Δ clinical score untreated -treated, Avg. Delta","1 mg/kg IA (Group 3), Day 3",0.00 points
same,Clinical score of treated leg (Avg.),"1 mg/kg IA (Group 3), Day 4",0.00 points
same,Paw thickness Avg. Delta untreated -treated,"1 mg/kg IA (Group 3), Day 4",−0.03 mm
same,Paw thickness of treated leg (Avg.),"1 mg/kg IA (Group 3), Day 4",2.22 mm
same,Paw thickness of untreated leg (Avg.),"1 mg/kg IA (Group 3), Day 4",2.19 mm
same,Percent change of weight per day (Av),"1 mg/kg IA (Group 3), Day 4",101.40%
same,Percent change of weight per day (individual animal),"1 mg/kg IA (Group 3), Day 4",101.9608% and 100% (2×) and 103.9409% and 100.9302%
same,"Δ clinical score untreated -treated, Avg. Delta","1 mg/kg IA (Group 3), Day 4",0.00 points
same,Clinical score of treated leg (Avg.),"1 mg/kg IA (Group 3), Day 5",0.00 points
same,Paw thickness Avg. Delta untreated -treated,"1 mg/kg IA (Group 3), Day 5",0.04 mm
same,Paw thickness of treated leg (Avg.),"1 mg/kg IA (Group 3), Day 5",2.13 mm
same,Paw thickness of untreated leg (Avg.),"1 mg/kg IA (Group 3), Day 5",2.17 mm
same,Percent change of weight per day (Av),"1 mg/kg IA (Group 3), Day 5",91.68%
same,Percent change of weight per day (individual animal),"1 mg/kg IA (Group 3), Day 5",93.63% and 89.78% and 94.58% and 88.94% and 89.3%
same,"Δ clinical score untreated -treated, Avg. Delta","1 mg/kg IA (Group 3), Day 5",0.00 points
same,Clinical score of treated leg (Avg.),"1 mg/kg IA (Group 3), Day 6",0.14 points
same,Paw thickness Avg. Delta untreated -treated,"1 mg/kg IA (Group 3), Day 6",0.23* mm
same,Paw thickness of treated leg (Avg.),"1 mg/kg IA (Group 3), Day 6",2.27* mm
same,Paw thickness of untreated leg (Avg.),"1 mg/kg IA (Group 3), Day 6",2.50 mm
same,Percent change of weight per day (Av),"1 mg/kg IA (Group 3), Day 6",89.39%
same,Percent change of weight per day (individual animal),"1 mg/kg IA (Group 3), Day 6",91.67% and 82.67% and 92.61% and 90.45% and 89.77%
same,"Δ clinical score untreated -treated, Avg. Delta","1 mg/kg IA (Group 3), Day 6",0.57 points
same,Clinical score of treated leg (Avg.),"1 mg/kg IA (Group 3), Day 7",0.71 points
same,Paw thickness Avg. Delta untreated -treated,"1 mg/kg IA (Group 3), Day 7",0.56* mm
same,Paw thickness of treated leg (Avg.),"1 mg/kg IA (Group 3), Day 7",2.25** mm
same,Paw thickness of untreated leg (Avg.),"1 mg/kg IA (Group 3), Day 7",2.80 mm
same,Percent change of weight per day (Av),"1 mg/kg IA (Group 3), Day 7",89.93%
same,Percent change of weight per day (individual animal),"1 mg/kg IA (Group 3), Day 7",89.71% and 84% and 93.1% and 89.45% and 90.23%
same,"Δ clinical score untreated -treated, Avg. Delta","1 mg/kg IA (Group 3), Day 7",0.71 points
same,Clinical score of treated leg (Avg.),"1 mg/kg IA (Group 3), Day 8",1.00 points
same,Paw thickness Avg. Delta untreated -treated,"1 mg/kg IA (Group 3), Day 8",0.56 mm
same,Paw thickness of treated leg (Avg.),"1 mg/kg IA (Group 3), Day 8",2.36* mm
same,Paw thickness of untreated leg (Avg.),"1 mg/kg IA (Group 3), Day 8",2.92 mm
same,Percent change of weight per day (Av),"1 mg/kg IA (Group 3), Day 8",91.22%
same,Percent change of weight per day (individual animal),"1 mg/kg IA (Group 3), Day 8",90.69% and 88% and 92.61% and 89.95%
same,"Δ clinical score untreated -treated, Avg. Delta","1 mg/kg IA (Group 3), Day 8",1.43 points
same,Clinical score of treated leg (Avg.),"1 mg/kg IA (Group 3), Day 10",0.71 points
same,Paw thickness Avg. Delta untreated -treated,"1 mg/kg IA (Group 3), Day 10",0.74 mm
same,Paw thickness of treated leg (Avg.),"1 mg/kg IA (Group 3), Day 10",2.21* mm
same,Paw thickness of untreated leg (Avg.),"1 mg/kg IA (Group 3), Day 10",2.95 mm
same,Percent change of weight per day (Av),"1 mg/kg IA (Group 3), Day 10",93.11%
same,Percent change of weight per day (individual animal),"1 mg/kg IA (Group 3), Day 10",92.16% and 94.67% and 93.6% and 93.47%
same,"Δ clinical score untreated -treated, Avg. Delta","1 mg/kg IA (Group 3), Day 10",1.29 points
same,Clinical score of treated leg (Avg.),"1 mg/kg IA (Group 3), Day 12",0.57 points
same,Paw thickness Avg. Delta untreated -treated,"1 mg/kg IA (Group 3), Day 12",0.80 mm
same,Paw thickness of treated leg (Avg.),"1 mg/kg IA (Group 3), Day 12",2.18 mm
same,Paw thickness of untreated leg (Avg.),"1 mg/kg IA (Group 3), Day 12",2.98 mm
same,Percent change of weight per day (Av),"1 mg/kg IA (Group 3), Day 12",97.09* percent
same,Percent change of weight per day (individual animal),"1 mg/kg IA (Group 3), Day 12",95.1% and 100% and 98.03% and 96.98% and 93.49%
same,"Δ clinical score untreated -treated, Avg. Delta","1 mg/kg IA (Group 3), Day 12",1.86 points
same,"reduction of arthritis score, treated vs untreated paw","1 mg/kg IA, day 12",76.5%
same,"reduction of paw thickness, treated vs untreated paw","1 mg/kg IA, day 12",26.8%
